Literature values as cited in patent US20060258708A1, “Method for treating Parkinson's disease and other neurological diseases” (priority 2005, published 2006).

Assays:
[1] = racemic thalidomide, animals
[2] = test system: tumor necrosis factor alpha production by stimulated monocytes
[3] = humans

maximal blood concentration ([3]; 100 to 200 mg ingested): 0.9 to 1.5 mg/L
time at which maximal blood concentration is attained ([3]; 100 to 200 mg ingested): 4 to 6 h
oral absorption ([3]; orally administered): poorly absorbed
Compound: O=C1CCC(N2C(=O)c3ccccc3C2=O)C(=O)N1 (racemic) [Thalidomide, N-phthalidoglutarimide]
toxicity in a series of animal studies [1]: has not been toxic
effect on tumor necrosis factor alpha production [2]: inhibit
